ChEMBL document CHEMBL4507268 (2021)

How the values were obtained:
Details in all cases: Compound concentration 1.0 uM
[1] = biological target: CDK6/cyclin D3 (Homo sapiens) (UniProt P30281+Q00534)
[2] = biological target: Casein kinase I isoform gamma-3 (Homo sapiens) (UniProt Q9Y6M4)
[3] = biological target: T1, Ephrin type-B receptor 2 (Homo sapiens) (UniProt P29323)
T1 sequence (whole entry): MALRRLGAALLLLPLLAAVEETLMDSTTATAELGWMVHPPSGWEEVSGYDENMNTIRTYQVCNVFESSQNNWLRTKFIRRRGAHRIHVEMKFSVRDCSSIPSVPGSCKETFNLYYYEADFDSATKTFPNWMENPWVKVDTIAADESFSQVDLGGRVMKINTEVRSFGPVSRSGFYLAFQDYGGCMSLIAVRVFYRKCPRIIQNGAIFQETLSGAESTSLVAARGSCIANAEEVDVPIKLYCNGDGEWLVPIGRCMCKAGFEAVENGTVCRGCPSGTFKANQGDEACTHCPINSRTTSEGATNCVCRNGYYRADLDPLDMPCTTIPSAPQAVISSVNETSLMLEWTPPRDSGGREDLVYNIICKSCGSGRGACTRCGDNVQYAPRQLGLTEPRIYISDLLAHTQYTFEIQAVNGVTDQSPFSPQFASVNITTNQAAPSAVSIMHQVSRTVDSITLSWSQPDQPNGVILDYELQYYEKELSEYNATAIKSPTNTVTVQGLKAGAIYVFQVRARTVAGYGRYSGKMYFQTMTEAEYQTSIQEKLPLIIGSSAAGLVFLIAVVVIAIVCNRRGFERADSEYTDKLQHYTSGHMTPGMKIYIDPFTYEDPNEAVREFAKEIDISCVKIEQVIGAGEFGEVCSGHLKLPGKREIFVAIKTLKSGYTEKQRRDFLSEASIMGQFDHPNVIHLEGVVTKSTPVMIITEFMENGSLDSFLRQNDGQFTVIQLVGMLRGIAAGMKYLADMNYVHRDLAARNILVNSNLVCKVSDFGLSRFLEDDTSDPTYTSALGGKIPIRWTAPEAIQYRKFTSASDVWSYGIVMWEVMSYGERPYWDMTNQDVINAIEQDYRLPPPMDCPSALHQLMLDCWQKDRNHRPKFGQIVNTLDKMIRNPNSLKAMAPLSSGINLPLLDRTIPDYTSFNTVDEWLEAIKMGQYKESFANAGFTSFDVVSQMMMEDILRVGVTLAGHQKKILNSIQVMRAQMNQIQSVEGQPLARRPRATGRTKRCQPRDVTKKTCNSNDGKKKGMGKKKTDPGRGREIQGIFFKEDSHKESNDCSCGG

[4] = biological target: Mitogen-activated protein kinase kinase kinase kinase 1 (Homo sapiens) (UniProt Q92918)
[5] = biological target: Interleukin-1 receptor-associated kinase 1 (Homo sapiens) (UniProt P51617)
[6] = biological target: Hepatocyte growth factor receptor (Homo sapiens) (UniProt P08581)
[7] = biological target: Misshapen-like kinase 1 (Homo sapiens) (UniProt Q8N4C8)
[8] = biological target: T2, Serine/threonine-protein kinase 3 (Homo sapiens) (UniProt Q13188)
T2 sequence (whole entry): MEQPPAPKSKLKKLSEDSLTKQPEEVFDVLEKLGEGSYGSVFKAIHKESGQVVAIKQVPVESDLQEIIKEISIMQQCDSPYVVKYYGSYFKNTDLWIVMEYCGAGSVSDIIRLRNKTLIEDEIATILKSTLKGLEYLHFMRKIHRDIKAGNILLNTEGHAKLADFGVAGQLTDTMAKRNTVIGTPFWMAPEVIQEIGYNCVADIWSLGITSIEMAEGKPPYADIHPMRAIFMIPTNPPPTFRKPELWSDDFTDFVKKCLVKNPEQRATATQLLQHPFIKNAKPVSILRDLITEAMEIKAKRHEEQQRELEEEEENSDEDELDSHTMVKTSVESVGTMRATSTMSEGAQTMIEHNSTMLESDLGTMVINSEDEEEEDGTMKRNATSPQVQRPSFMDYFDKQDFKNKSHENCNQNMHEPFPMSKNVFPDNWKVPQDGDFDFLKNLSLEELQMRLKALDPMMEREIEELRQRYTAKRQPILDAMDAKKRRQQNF

[9] = biological target: Serine/threonine-protein kinase 26 (Homo sapiens) (UniProt Q9P289)
[10] = biological target: Serine/threonine-protein kinase 38-like (Homo sapiens) (UniProt Q9Y2H1)
[11] = biological target: T3, Serine/threonine-protein kinase Nek2 (Homo sapiens) (UniProt P51955)
T3 sequence (whole entry): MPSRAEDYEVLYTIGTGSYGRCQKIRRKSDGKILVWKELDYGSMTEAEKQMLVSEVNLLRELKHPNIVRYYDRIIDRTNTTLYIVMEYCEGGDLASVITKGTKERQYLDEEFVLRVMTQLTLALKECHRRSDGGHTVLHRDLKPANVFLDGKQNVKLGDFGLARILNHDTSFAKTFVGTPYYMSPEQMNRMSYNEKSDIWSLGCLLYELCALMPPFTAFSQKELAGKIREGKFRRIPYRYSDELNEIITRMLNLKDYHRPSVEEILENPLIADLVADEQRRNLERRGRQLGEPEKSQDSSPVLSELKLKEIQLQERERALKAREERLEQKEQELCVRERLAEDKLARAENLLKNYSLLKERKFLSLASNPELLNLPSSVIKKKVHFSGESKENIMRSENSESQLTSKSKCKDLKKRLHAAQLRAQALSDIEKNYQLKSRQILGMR

[12] = biological target: Serine/threonine-protein kinase pim-3 (Homo sapiens) (UniProt Q86V86)
[13] = biological target: TGF-beta receptor type-2 (Homo sapiens) (UniProt P37173)

Measured: % residual kinase activity

Hepatocyte growth factor receptor (Homo sapiens), sequence (P08581 whole entry): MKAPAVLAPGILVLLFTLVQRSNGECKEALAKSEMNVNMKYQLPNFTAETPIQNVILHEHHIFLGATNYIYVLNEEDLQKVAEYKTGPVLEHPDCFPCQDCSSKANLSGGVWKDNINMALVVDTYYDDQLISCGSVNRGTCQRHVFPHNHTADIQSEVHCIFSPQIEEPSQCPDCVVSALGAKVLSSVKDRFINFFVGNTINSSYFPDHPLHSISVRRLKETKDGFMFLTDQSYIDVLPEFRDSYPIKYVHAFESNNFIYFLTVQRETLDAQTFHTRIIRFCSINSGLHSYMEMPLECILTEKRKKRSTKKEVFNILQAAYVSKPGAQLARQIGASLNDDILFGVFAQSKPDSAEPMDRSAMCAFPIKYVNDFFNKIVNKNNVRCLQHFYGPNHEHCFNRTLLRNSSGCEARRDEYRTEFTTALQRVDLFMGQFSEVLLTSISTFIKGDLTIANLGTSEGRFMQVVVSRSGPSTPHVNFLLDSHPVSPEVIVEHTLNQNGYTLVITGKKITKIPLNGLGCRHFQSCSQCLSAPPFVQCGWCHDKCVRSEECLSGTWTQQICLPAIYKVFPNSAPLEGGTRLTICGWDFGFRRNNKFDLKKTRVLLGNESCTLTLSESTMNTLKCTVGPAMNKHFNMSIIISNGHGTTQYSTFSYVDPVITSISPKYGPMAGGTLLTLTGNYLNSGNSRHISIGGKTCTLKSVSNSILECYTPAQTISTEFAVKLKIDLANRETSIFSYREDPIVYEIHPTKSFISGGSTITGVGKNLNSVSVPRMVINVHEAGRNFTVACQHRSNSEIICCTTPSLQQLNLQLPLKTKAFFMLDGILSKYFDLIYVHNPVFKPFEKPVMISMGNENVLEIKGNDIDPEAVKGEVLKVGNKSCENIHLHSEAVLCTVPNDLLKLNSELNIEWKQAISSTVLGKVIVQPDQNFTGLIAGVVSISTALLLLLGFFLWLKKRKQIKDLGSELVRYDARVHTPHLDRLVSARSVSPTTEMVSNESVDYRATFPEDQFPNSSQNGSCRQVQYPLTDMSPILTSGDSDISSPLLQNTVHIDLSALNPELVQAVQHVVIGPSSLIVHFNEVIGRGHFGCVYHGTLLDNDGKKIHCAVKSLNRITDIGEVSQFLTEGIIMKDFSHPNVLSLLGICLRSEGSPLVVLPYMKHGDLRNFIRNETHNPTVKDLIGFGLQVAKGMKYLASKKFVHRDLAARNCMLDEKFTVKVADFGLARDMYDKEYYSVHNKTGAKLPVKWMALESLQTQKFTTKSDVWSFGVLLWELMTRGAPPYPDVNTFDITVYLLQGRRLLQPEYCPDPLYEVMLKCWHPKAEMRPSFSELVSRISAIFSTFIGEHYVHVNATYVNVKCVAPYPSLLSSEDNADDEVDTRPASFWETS
Misshapen-like kinase 1 (Homo sapiens), sequence (Q8N4C8 whole entry, looked up): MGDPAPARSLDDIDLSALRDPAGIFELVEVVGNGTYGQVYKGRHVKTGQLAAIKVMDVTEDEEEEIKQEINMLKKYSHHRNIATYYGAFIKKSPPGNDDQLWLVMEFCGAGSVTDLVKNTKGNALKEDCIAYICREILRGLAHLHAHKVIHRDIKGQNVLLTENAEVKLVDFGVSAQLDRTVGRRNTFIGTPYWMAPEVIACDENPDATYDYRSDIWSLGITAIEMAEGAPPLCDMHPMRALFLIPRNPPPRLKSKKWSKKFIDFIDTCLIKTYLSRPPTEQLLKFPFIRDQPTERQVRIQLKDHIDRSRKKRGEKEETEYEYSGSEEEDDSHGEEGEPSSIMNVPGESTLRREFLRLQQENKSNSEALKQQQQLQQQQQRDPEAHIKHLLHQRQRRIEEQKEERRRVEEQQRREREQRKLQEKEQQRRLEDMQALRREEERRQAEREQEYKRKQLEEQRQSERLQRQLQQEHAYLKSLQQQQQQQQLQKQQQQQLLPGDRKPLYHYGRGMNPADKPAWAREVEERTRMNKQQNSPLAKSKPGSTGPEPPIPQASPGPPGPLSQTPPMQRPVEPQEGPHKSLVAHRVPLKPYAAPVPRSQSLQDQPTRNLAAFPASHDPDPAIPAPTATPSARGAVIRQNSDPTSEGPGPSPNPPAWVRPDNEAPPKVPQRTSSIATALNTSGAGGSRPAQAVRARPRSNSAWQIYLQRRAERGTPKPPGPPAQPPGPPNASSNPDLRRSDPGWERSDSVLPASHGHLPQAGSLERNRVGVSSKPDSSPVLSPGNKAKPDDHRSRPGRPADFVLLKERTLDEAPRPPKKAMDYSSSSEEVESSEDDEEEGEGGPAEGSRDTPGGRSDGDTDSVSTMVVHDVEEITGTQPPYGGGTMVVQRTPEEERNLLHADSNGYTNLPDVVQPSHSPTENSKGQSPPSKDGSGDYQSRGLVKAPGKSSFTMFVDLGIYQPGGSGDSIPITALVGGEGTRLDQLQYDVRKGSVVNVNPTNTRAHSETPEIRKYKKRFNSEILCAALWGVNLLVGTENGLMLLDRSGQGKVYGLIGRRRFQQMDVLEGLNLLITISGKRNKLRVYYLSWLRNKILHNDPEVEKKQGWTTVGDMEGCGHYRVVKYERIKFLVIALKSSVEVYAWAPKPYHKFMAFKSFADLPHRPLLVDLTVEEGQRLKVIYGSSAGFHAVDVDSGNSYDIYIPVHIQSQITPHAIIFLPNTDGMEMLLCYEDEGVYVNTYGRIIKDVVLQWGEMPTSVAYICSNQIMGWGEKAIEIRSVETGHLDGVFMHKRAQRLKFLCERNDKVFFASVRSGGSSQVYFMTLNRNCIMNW
Mitogen-activated protein kinase kinase kinase kinase 1 (Homo sapiens), sequence (Q92918 whole entry, looked up): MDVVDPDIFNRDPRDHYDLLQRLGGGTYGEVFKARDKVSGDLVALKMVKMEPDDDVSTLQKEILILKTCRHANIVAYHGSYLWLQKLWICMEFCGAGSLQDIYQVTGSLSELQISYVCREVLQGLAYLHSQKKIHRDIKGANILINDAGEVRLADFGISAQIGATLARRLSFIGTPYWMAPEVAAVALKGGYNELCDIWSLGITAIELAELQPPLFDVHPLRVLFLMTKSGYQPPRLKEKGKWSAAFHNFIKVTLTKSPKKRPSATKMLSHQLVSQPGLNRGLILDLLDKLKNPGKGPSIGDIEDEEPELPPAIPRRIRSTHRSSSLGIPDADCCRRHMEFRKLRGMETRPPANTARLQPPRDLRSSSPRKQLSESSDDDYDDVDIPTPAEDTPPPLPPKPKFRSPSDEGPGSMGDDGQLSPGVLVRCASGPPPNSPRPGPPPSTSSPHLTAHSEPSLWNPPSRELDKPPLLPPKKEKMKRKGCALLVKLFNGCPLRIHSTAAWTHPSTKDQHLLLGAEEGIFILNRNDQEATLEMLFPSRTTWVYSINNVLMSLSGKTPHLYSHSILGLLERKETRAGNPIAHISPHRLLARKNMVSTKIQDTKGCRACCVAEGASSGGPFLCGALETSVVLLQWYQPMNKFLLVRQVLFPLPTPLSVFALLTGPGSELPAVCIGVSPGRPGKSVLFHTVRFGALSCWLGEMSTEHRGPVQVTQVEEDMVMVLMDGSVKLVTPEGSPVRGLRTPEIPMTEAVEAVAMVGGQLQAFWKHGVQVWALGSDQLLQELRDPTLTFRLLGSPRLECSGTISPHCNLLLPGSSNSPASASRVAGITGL
Serine/threonine-protein kinase 26 (Homo sapiens), sequence (Q9P289 2-416 limits assumed): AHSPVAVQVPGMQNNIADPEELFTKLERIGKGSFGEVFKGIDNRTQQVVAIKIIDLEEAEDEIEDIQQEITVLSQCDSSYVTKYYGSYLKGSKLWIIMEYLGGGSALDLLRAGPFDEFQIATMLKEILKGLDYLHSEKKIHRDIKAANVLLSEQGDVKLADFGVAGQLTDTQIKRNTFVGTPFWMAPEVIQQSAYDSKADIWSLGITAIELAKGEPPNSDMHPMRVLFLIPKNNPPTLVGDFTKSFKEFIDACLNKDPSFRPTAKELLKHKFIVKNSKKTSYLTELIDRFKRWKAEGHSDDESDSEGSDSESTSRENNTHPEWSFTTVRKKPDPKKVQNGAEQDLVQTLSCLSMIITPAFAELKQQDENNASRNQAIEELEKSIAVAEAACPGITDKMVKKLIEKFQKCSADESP
TGF-beta receptor type-2 (Homo sapiens), sequence (P37173 whole entry): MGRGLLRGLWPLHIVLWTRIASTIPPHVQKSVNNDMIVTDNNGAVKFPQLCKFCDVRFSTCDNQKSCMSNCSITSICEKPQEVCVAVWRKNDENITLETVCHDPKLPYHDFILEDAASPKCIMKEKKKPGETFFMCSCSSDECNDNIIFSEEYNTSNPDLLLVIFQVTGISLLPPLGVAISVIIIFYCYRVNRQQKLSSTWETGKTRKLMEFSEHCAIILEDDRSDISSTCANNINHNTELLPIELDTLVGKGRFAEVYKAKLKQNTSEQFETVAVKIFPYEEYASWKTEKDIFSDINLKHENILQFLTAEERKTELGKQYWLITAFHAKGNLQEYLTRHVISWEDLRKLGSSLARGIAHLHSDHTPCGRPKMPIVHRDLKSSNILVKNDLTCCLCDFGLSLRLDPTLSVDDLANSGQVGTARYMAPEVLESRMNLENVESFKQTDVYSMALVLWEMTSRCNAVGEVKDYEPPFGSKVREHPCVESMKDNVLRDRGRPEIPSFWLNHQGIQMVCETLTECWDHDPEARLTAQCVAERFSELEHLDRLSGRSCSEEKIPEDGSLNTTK

CN1CCN(c2cnc3c(C4CCN(C(=O)c5ccc(OC(F)(F)F)cc5N)CC4)ncnc3c2)CC1 [BAY-885]
inactive: [1] 96% | [2] 96% | [3] 93% | [4] 106% | [5] 110% | [6] 93% | [7] 98% | [8] 128% | [9] 103% | [10] 100% | [11] 111% | [12] 102% | [13] 108%
